Measurements as given in BigSolDB 2.1.

O=[N+]([O-])c1ccc(O)c2ncccc12
solubility (mole fraction)
Conditions | in acetic acid | in acetone | in acetonitrile | in ethanol | in ethyl acetate | in isopropanol | in methanol | in n-butanol | in n-propanol | in toluene
278.15 K | 0.00224 | 0.00398 | 0.00113 | 0.000575 | 0.00339 | 0.0005 | 0.000443 | 0.000606 | 0.000562 | 0.00229
280.65 K | 0.00239 | 0.00429 | 0.00124 | 0.000625 | 0.00369 | 0.000548 | 0.000486 | 0.000663 | 0.000608 | 0.00247
283.15 K | 0.00259 | 0.00461 | 0.00137 | 0.000682 | 0.004 | 0.000605 | 0.000531 | 0.000726 | 0.000675 | 0.00269
285.65 K | 0.0028 | 0.00498 | 0.00151 | 0.00075 | 0.00437 | 0.000672 | 0.000586 | 0.000797 | 0.000748 | 0.00293
288.15 K | 0.00303 | 0.00538 | 0.00165 | 0.00082 | 0.00476 | 0.000741 | 0.000643 | 0.000867 | 0.000814 | 0.00317
290.65 K | 0.00328 | 0.0058 | 0.0018 | 0.000901 | 0.00517 | 0.000816 | 0.000701 | 0.000961 | 0.000899 | 0.00345
293.15 K | 0.00355 | 0.00624 | 0.00197 | 0.000988 | 0.00564 | 0.000897 | 0.000763 | 0.00105 | 0.00099 | 0.00377
295.65 K | 0.00383 | 0.00668 | 0.00214 | 0.00108 | 0.0061 | 0.000974 | 0.00083 | 0.00116 | 0.00109 | 0.00408
298.15 K | 0.00416 | 0.00721 | 0.00233 | 0.00118 | 0.00667 | 0.00107 | 0.000904 | 0.00128 | 0.00119 | 0.00444
300.65 K | 0.00449 | 0.00773 | 0.00256 | 0.00128 | 0.00724 | 0.00118 | 0.000981 | 0.00139 | 0.00131 | 0.00481
303.15 K | 0.00484 | 0.00831 | 0.00279 | 0.00139 | 0.00786 | 0.00129 | 0.00107 | 0.00153 | 0.00143 | 0.00518
305.65 K | 0.0052 | 0.00888 | 0.00304 | 0.00152 | 0.00857 | 0.00141 | 0.00116 | 0.00166 | 0.00157 | 0.00562
308.15 K | 0.00559 | 0.00956 | 0.00334 | 0.00166 | 0.00929 | 0.00154 | 0.00127 | 0.0018 | 0.0017 | 0.00609
310.65 K | 0.00601 | 0.0103 | 0.00366 | 0.00182 | 0.01 | 0.00168 | 0.00138 | 0.00197 | 0.00186 | 0.0066
313.15 K | 0.00649 | 0.0111 | 0.00403 | 0.00199 | 0.0109 | 0.00183 | 0.00149 | 0.00217 | 0.00204 | 0.00715
